Test results: EP0488424B1, “Recombinant DNA sequences encoding feedback inhibition released enzymes, plasmids comprising the recombinant DNA sequences, transformed microorganisms useful in the production of aromatic amino acids, and a process for preparing aromatic amino acids by fermentation” (priority 1990, dated 1992)

Experiments:
Type in all cases: biochemical
[1] = target: T1, Escherichia coli K-12 chorismate mutase-prephenate dehydratase (CM-PD), variant with amino acid residues downstream from the 330 serine residue deleted (pPHATer (Escherichia coli, UniProt P0A9J8)); test: PD enzyme activity in the presence of L-phenylalanine (crude enzyme); conditions: crude enzyme of W3110 (tyrA)/(pPHATerm); concentration not given
T1 construct: made in house; host or cells: Escherichia coli W3110 (tyrA), crude enzyme
Experimental: (§1) Escherichia coli K-12 W3110 (tyrA)/(pPHAB) strain was cultured at 37°C for 15 hours in L medium and the cells were collected by centrifugation. Then, the cells were washed twice with physiological saline, and suspended in 250 mM Tris-hydrochloride buffer (pH 7.5) containing 0.5 mM dithiothreitol under ice cooling. By ultrasonication (20 KHz) for 30 seconds four times, the crude enzyme solution was prepared.
(§2) The PD enzyme activity was determined in a conventional manner [Cotton, R.G.H. and Gibson, F., Meth. in Enzymol., 17, 564 (1970)]. Using the crude enzyme, the enzymatic reaction was carried out at 37°C for 10 minutes in the presence of 50 mM Tris-hydrochloride buffer (pH 8.2) containing 1 mM barium prephenate and 0.5 mM L-tyrosine. Aqueous sodium hydroxide (1 N) was added to terminate the reaction, and the formed phenylpyruvic acid was measured at an extinction wavelength of 320 nm.
(§3) Quantitative determination of protein was made using the Protein Assay Kit (manufactured by Bio Rad Co.), according to the protocol of the manufacturer.
(§4) By using the same method above, the PD enzyme activities of Escherichia coli W3110 (tyrA)/(pPHAD) and Escherichia coli W3110 (tyrA)/(pPHATerm) were determined.

[2] = target: T2, Escherichia coli K-12 chorismate mutase-prephenate dehydratase (CM-PD), variant with 330 serine residue substituted with an aspartic acid (pPHAD) (Escherichia coli, UniProt P0A9J8, S330D); test: as above; conditions: crude enzyme of W3110 (tyrA)/(pPHAD); concentration not given
T2 construct: the natural CM-PD gene of Escherichia coli is cloned; made in house; host or cells: Escherichia coli W3110 (tyrA), crude enzyme
Experimental: as §1, §2, §3, §4

[3] = target: T3, Escherichia coli chorismate mutase-prephenate dehydratase (CM-PD), wild type (Escherichia coli, UniProt P0A9J8); test: as above; conditions: 0.5 mM L-phenylalanine; 1 mM barium prephenate, 0.5 mM L-tyrosine, pH 8.2, 37°C, 10 minutes; Fig. 4
T3 construct: the natural CM-PD gene of Escherichia coli is cloned; made in house
Experimental: as §1, §2, §3

[4] = target: T4, Escherichia coli K-12 chorismate mutase-prephenate dehydratase (CM-PD), variant with 330 serine residue substituted with a proline residue (pPHAB) (Escherichia coli, UniProt P0A9J8, S330P); test: as above; conditions: 5 mM L-phenylalanine; 1 mM barium prephenate, 0.5 mM L-tyrosine, pH 8.2, 37°C, 10 minutes; Fig. 4
T4 construct: the natural CM-PD gene of Escherichia coli is cloned; made in house; host or cells: Escherichia coli K-12 W3110 (tyrA), crude enzyme solution
Experimental: as §1, §2, §3

[5] = target: T5, Escherichia coli DS encoded by aroG, variant aroG4, 150 Pro → Leu (pTS-aroG4, strain AJ 12562) (Escherichia coli, UniProt P0AB91, P150L); test: DS enzyme activity in the presence of L-phenylalanine (crude enzyme solution); conditions: crude enzyme of AJ 12562 (AB3257/pTS-aroG4); Fig. 3
T5 construct: cloning the natural DS gene of Escherichia coli; made in house; host or cells: Escherichia coli AB3257 (strain AJ 12562), crude enzyme solution
Excerpt: (§5) The above plasmids, bearing either mutant aroF (pTS-aroF15 and pTS-aroF33) or mutant aroG (pTS-aroG4, pTS-aroG8, pTS-aroG15, pTS-aroG17, pTS-aroG29 and pTS-aroG40), were used to transform Escherichia coli AB3257 strain having no DS activity. The respective transformants were named AJ 12598 (AB3257/pTS-aroF15), AJ 12599 (AB3257/pTS-aroF33), AJ 12562 (AB3257/pTS-aroG4), AJ 12600 (AB3257/pTS-aroG8), AJ 12563 (AB3257/pTS-aroG15), AJ 12601 (AB3257/pTS-aroG17), AJ 12602 (AB3257/pTS-aroG29) and AJ 12603 (AB3257/pTS-aroG40), respectively. Among them, AJ 12563 and AJ 12603 were deposited as representative strains in the Fermentation Research Institute of the Agency of Industrial Science & Technology of Japan, under the deposit numbers Escherichia coli FERM BP-3567 and FERM BP-3568, respectively. For the purpose of comparison, plasmids hearing wild type genes were also used to transform the E. coli AB3257 strain.
(§6) Each of these strains were cultured for 24 hours in a known L-phenylalanine-producing medium [Sugimoto, S. et al., J. Biotechnol., 5, 237 (1988)]. From the culture cells, the crude enzyme solution was prepared by ultrasonic homogenization. The enzyme activity of DS was determined in a conventional manner [Gollub, E. et al., Methods Enzymol., 17, 349], in the presence of L-tyrosine in the case of aroF, and in the presence of L-phenylalanine in the case of aroG.

[6] = target: T6, Escherichia coli 3-deoxy-D-arabinoheptulonic acid-7-phosphate synthase (DS) encoded by aroG, wild type (pTS-aroG) (Escherichia coli, UniProt P0AB91); test: as above; conditions: crude enzyme of AB3257/pTS-aroG; concentration not stated in text (Fig. 3)
T6 construct: cloning the natural DS gene of Escherichia coli; made in house; host or cells: Escherichia coli AB3257 (no DS activity), crude enzyme solution
Excerpt: as §5, §6

[7] = target: T7, Escherichia coli DS encoded by aroG, variant aroG8, 202 Ala → Thr (pTS-aroG8) (Escherichia coli, UniProt P0AB91, A202T); test: as above; conditions: crude enzyme of AJ 12600 (AB3257/pTS-aroG8); Fig. 3
T7 construct: cloning the natural DS gene of Escherichia coli; made in house; host or cells: Escherichia coli AB3257 (strain AJ 12600), crude enzyme solution
Excerpt: as §5, §6

[8] = target: T8, Escherichia coli DS encoded by aroG, variant aroG40, 157 Met → Ile, 219 Ala → Thr (pTS-aroG40) (Escherichia coli, UniProt P0AB91, A219T/M157I); test: as above; conditions: crude enzyme of AJ 12603 (AB3257/pTS-aroG40); Fig. 3
T8 construct: cloning the natural DS gene of Escherichia coli; made in house; host or cells: Escherichia coli AB3257 (strain AJ 12603), crude enzyme solution
Excerpt: as §5, §6

[9] = target: T9, Escherichia coli DS encoded by aroG, variant aroG29, 147 Met → Ile (pTS-aroG29) (Escherichia coli, UniProt P0AB91, M147I); test: as above; conditions: crude enzyme of AJ 12602 (AB3257/pTS-aroG29); Fig. 3
T9 construct: cloning the natural DS gene of Escherichia coli; made in house; host or cells: Escherichia coli AB3257 (strain AJ 12602), crude enzyme solution
Excerpt: as §5, §6

[10] = target: T10, Escherichia coli DS encoded by aroG, variant aroG15, 146 Asp → Asn (pTS-aroG15) (Escherichia coli, UniProt P0AB91, D146N); test: as above; conditions: crude enzyme of AJ 12563 (AB3257/pTS-aroG15); Fig. 3
T10 construct: cloning the natural DS gene of Escherichia coli; made in house; host or cells: Escherichia coli AB3257 (strain AJ 12563), crude enzyme solution
Excerpt: as §5, §6

[11] = target: T11, Escherichia coli DS encoded by aroG, variant aroG17, 147 Met → Ile, 332 Glu → Lys (pTS-aroG17) (Escherichia coli, UniProt P0AB91, E332K/M147I); test: as above; conditions: crude enzyme of AJ 12601 (AB3257/pTS-aroG17); Fig. 3
T11 construct: cloning the natural DS gene of Escherichia coli; made in house; host or cells: Escherichia coli AB3257 (strain AJ 12601), crude enzyme solution
Excerpt: as §5, §6

[12] = target: T12, Escherichia coli 3-deoxy-D-arabinoheptulonic acid-7-phosphate synthase (DS) encoded by aroF, wild type (pTS-aroF) (Escherichia coli, UniProt P00888); test: DS enzyme activity in the presence of L-tyrosine (crude enzyme solution); conditions: crude enzyme of AB3257/pTS-aroF; concentration not stated in text (Fig. 2)
T12 construct: cloning the natural DS gene of Escherichia coli; made in house; host or cells: Escherichia coli AB3257 (aroF, aroG, aroH deleted), crude enzyme solution
Excerpt: as §5, §6

[13] = target: T13, Escherichia coli DS encoded by aroF, variant aroF15, 147 Asp → Asn (pTS-aroF15) (Escherichia coli, UniProt P00888, D147N); test: as above; conditions: crude enzyme of AJ 12598 (AB3257/pTS-aroF15); concentration not stated in text (Fig. 2)
T13 construct: cloning the natural DS gene of Escherichia coli; made in house; host or cells: Escherichia coli AB3257 (strain AJ 12598), crude enzyme solution
Excerpt: as §5, §6

[14] = target: T14, Escherichia coli DS encoded by aroF, variant aroF33, 181 Ser → Phe (pTS-aroF33) (Escherichia coli, UniProt P00888, S181F); test: as above; conditions: crude enzyme of AJ 12599 (AB3257/pTS-aroF33); concentration not stated in text (Fig. 2)
T14 construct: cloning the natural DS gene of Escherichia coli; made in house; host or cells: Escherichia coli AB3257 (strain AJ 12599), crude enzyme solution
Excerpt: as §5, §6

Row | SMILES | feedback inhibition by L-phenylalanine of PD enzyme activity [1] | feedback inhibition by L-phenylalanine of PD enzyme activity [2] | inhibition by L-phenylalanine of prephenate dehydratase activity [3] | inhibition by L-phenylalanine of prephenate dehydratase activity [4] | DS enzyme activity as a function of L-phenylalanine concentration [5] | inhibition by L-phenylalanine of DS enzyme activity [5] | inhibition by L-phenylalanine of DS enzyme activity [6] | inhibition by L-phenylalanine of DS enzyme activity [7] | inhibition by L-phenylalanine of DS enzyme activity [8] | inhibition by L-phenylalanine of DS enzyme activity [9] | inhibition by L-phenylalanine of DS enzyme activity [10] | inhibition by L-phenylalanine of DS enzyme activity [11] | inhibition by L-tyrosine of DS enzyme activity [12] | inhibition by L-tyrosine of DS enzyme activity [13] | inhibition by L-tyrosine of DS enzyme activity [14]
1 | N[C@@H](Cc1ccccc1)C(=O)O [L-phenylalanine] | released from feedback inhibition | released from feedback inhibition | strongly inhibited | almost no inhibition | increases as the concentration of L-phenylalanine increases | releases feedback inhibition | strongly inhibited | feedback inhibition by L-phenylalanine is released | feedback inhibition by L-phenylalanine is released | feedback inhibition by L-phenylalanine is released | feedback inhibition by L-phenylalanine is released | feedback inhibition by L-phenylalanine is released |  |  | 
2 | N[C@@H](Cc1ccc(O)cc1)C(=O)O [L-tyrosine] |  |  |  |  |  |  |  |  |  |  |  |  | strongly inhibited | released from feedback inhibition | released from feedback inhibition
